Experimental data published in patent US8592181B2, “Brazzein variant having higher sweetness and method for preparing multi-variant” (Chung-Ang University Industry-Academy Cooperation Foundation, priority 2009, dated 2013).

Test system: human sense of taste
Assay: Sweetness measured by human sense of taste (20 trained subjects, minimum concentration at which sweetness is first sensed)
Assay type: in vivo
Details: for Multiples of increased sweetness to minor-type brazzein: relative to minor-type brazzein; for Minimum stimulation level in which one senses sweetness for first time: 20 trained subjects; for Sweetness ratios of sucrose (1 g/100 ml) to primary brazzein variants (minor-type brazzein: 2000) / Sweetness ratios of sucrose (1 g/100 ml) to brazzein multi-variants: relative to 1 g/100 ml sucrose threshold
Method: Since the recombinant brazzein according to the present invention is not a sucrose-based compound having a cyclic ring, the sweetness of the recombinant brazzein was not measured using a saccharometer. Therefore, the activity of the recombinant brazzein was measured using the human sense of taste. Sugar content measurement was performed on 20 subjects who were trained to feel substantially the same minimum concentration of sucrose in which they could sense sweetness using a sucrose solution. That is, a concentration of each brazzein variant in which the subjects could sense sweetness for the first time was measured. Also, a sweetness ratio of the sucrose solution to the wild-type brazzein was 1 g/100 ml, which was a minimum stimulation level in which the subjects could sense sweetness. Also, a sweetness ratio of the minor-type brazzein protein to the wild-type brazzein was 500 μg/100 ml, which was a minimum stimulation level in which the subjects could sense sweetness. Therefore, the sweetness was calculated using the sweetness ratios (That is, 1/0.0005=2000 for the minor-type brazzein).
Also, the brazzein multi-variants were measured for activity (sweetness) in the same manner as in Example 3-1.

Molecule | Multiples of increased sweetness to minor-type brazzein (primary brazzein variants) | Minimum stimulation level in which one senses sweetness for first time (primary brazzein variants) | Sweetness ratios of sucrose (1 g/100 ml) to primary brazzein variants (minor-type brazzein: 2000) | Multiples of increased sweetness to minor-type brazzein (brazzein multi-variants) | Sweetness ratios of sucrose (1 g/100 ml) to brazzein multi-variants | Minimum stimulation level in which the subjects could sense sweetness (sucrose solution) [g/100 ml]
H30A: primary brazzein variant: His at position 30 of minor-type brazzein substituted with Ala (DKCKKVYENYPVSKCQLANQCNYDCKLRKAARSGECFYDEKRNLQCICDYCEY; Brazzein(H30A)) [Brazzein H30A] | 0.08 | 6,000 μg/100 ml | 167 | – | – | –
R42D: primary brazzein variant: Arg at position 42 of minor-type brazzein substituted with Asp (DKCKKVYENYPVSKCQLANQCNYDCKLRKHARSGECFYDEKDNLQCICDYCEY; Brazzein(R42D)) [Brazzein R42D] | 0.05 | 10,000 μg/100 ml | 100 | – | – | –
E35D_E40D: secondary brazzein variant of minor-type brazzein with substitutions E35D and E40D (DKCKKVYENYPVSKCQLANQCNYDCKLRKHAKSGDCFYDDKRNLQCICDYCEY; Brazzein(E35D_E40D)) [Brazzein E35D_E40D] | – | – | – | 5 | 10,000 | –
E35K: primary brazzein variant: Glu at position 35 of minor-type brazzein substituted with Lys (DKCKKVYENYPVSKCQLANQCNYDCKLRKHARSGKCFYDEKRNLQCICDYCEY; Brazzein(E35K)) [Brazzein E35K] | 0.08 | 6,000 μg/100 ml | 167 | – | – | –
R42E: primary brazzein variant: Arg at position 42 of minor-type brazzein substituted with Glu (DKCKKVYENYPVSKCQLANQCNYDCKLRKHARSGECFYDEKENLQCICDYCEY; Brazzein(R42E)) [Brazzein R42E] | 0.05 | 10,000 μg/100 ml | 100 | – | – | –
E35D_E40A: secondary brazzein variant of minor-type brazzein with substitutions E35D and E40A (DKCKKVYENYPVSKCQLANQCNYDCKLRKHAKSGDCFYDAKRNLQCICDYCEY; Brazzein(E35D_E40A)) [Brazzein E35D_E40A] | – | – | – | 5 | 10,000 | –
K29E: primary brazzein variant: Lys at position 29 of minor-type brazzein substituted with Glu (DKCKKVYENYPVSKCQLANQCNYDCKLREHARSGECFYDEKRNLQCICDYCEY; Brazzein(K29E)) [Brazzein K29E] | 0.05 | 10,000 μg/100 ml | 100 | – | – | –
E35H: primary brazzein variant: Glu at position 35 of minor-type brazzein substituted with His (DKCKKVYENYPVSKCQLANQCNYDCKLRKHARSGHCFYDEKRNLQCICDYCEY; Brazzein(E35H)) [Brazzein E35H] | 0.08 | 6,000 μg/100 ml | 167 | – | – | –
OC[C@H]1O[C@@](CO)(O[C@H]2O[C@H](CO)[C@@H](O)[C@H](O)[C@H]2O)[C@@H](O)[C@@H]1O [sucrose, reference compound] | – | – | – | – | – | 1
H30R_E40K: secondary brazzein variant of minor-type brazzein with substitutions H30R and E40K (DKCKKVYENYPVSKCQLANQCNYDCKLRKRAKSGECFYDKKRNLQCICDYCEY; Brazzein(H30R_E40K)) [Brazzein H30R_E40K] | – | – | – | 5 | 10,000 | –
R32E: primary brazzein variant: Arg at position 32 of minor-type brazzein substituted with Glu (DKCKKVYENYPVSKCQLANQCNYDCKLRKHAESGECFYDEKRNLQCICDYCEY; Brazzein(R32E)) [Brazzein R32E] | 0.05 | 10,000 μg/100 ml | 100 | – | – | –
K5H: primary brazzein variant: Lys at position 5 of minor-type brazzein substituted with His (DKCKHVYENYPVSKCQLANQCNYDCKLRKHARSGECFYDEKRNLQCICDYCEY; Brazzein(K5H)) [Brazzein K5H] | 0.05 | 10,000 μg/100 ml | 100 | – | – | –
R42A: primary brazzein variant: Arg at position 42 of minor-type brazzein substituted with Ala (DKCKKVYENYPVSKCQLANQCNYDCKLRKHARSGECFYDEKANLQCICDYCEY; Brazzein(R42A)) [Brazzein R42A] | 0.05 | 10,000 μg/100 ml | 100 | – | – | –
K5A: primary brazzein variant: Lys at position 5 of minor-type brazzein substituted with Ala (DKCKAVYENYPVSKCQLANQCNYDCKLRKHARSGECFYDEKRNLQCICDYCEY; Brazzein(K5A)) [Brazzein K5A] | 0.08 | 6,000 μg/100 ml | 167 | – | – | –
K29D: primary brazzein variant: Lys at position 29 of minor-type brazzein substituted with Asp (DKCKKVYENYPVSKCQLANQCNYDCKLRDHARSGECFYDEKRNLQCICDYCEY; Brazzein(K29D)) [Brazzein K29D] | 0.05 | 10,000 μg/100 ml | 100 | – | – | –
H30R_E40D: secondary brazzein variant of minor-type brazzein with substitutions H30R and E40D (DKCKKVYENYPVSKCQLANQCNYDCKLRKRAKSGECFYDDKRNLQCICDYCEY; Brazzein(H30R_E40D)) [Brazzein H30R_E40D] | – | – | – | 4 | 8,000 | –
E35D_E40K: secondary brazzein variant of minor-type brazzein with substitutions E35D and E40K (DKCKKVYENYPVSKCQLANQCNYDCKLRKHAKSGDCFYDKKRNLQCICDYCEY; Brazzein(E35D_E40K)) [Brazzein E35D_E40K] | – | – | – | 4 | 8,000 | –
K29A: primary brazzein variant: Lys at position 29 of minor-type brazzein substituted with Ala (DKCKKVYENYPVSKCQLANQCNYDCKLRAHARSGECFYDEKRNLQCICDYCEY; Brazzein(K29A)) [Brazzein K29A] | 0.05 | 10,000 μg/100 ml | 100 | – | – | –
H30E: primary brazzein variant: His at position 30 of minor-type brazzein substituted with Glu (DKCKKVYENYPVSKCQLANQCNYDCKLRKEARSGECFYDEKRNLQCICDYCEY; Brazzein(H30E)) [Brazzein H30E] | 0.16 | 3,000 μg/100 ml | 334 | – | – | –
H30K: primary brazzein variant: His at position 30 of minor-type brazzein substituted with Lys (DKCKKVYENYPVSKCQLANQCNYDCKLRKKARSGECFYDEKRNLQCICDYCEY; Brazzein(H30K)) [Brazzein H30K] | 2 | 250 μg/100 ml | 4,000 | – | – | –
